# Laboratory results: patent publication US9702007B2, “Genetic markers predictive of response to glatiramer acetate” (TEVA PHARMACEUTICALS INDUSTRIES, LTD., priority 2013, dated 2017)
# “And” between values parts separate entries of the source, which are not always exact repeats. Identical values can stand only once. Like-named read-outs stand apart in the source and are kept apart here.
# Columns and labels:
# RRMS patients [1] = details: cited from earlier work
# RRMS patients [2] = experiment: Combined GALA and FORTE cohorts: patient responses by preliminary predictive model (11 SNPs and 2 clinical co-variates, threshold 0.71); assay type: in vivo, human; design: ARR reduced (improved) by: concentration or dose not given beside the values
# Procedure: A predictive model was generated based on the 11 SNPs shown in tables 42, 43, 44a and 44b and the two Clinical co-variants shown in table 33.
# Receiver Operating Characteristic (ROC) analysis was performed using the actual value (case or control) and predicted value for each sample from the multi-marker regression model (FIG. 1). For these preliminary analyses, two risk groups were defined using the predicted values from the multi-marker regression model. The predictive threshold value was set at 0.71 (termed “model 3”) based on a variety of factors after consultation with the Teva team and Teva MS clinical experts.
# While 40% of patients were classified as “predicted non-responders” with an overall response rate of 34% (FIG. 5).
# RRMS subjects = details: cited from earlier work
# RRMS patients [3] = experiment: GALA phase 3 trial cohort: response to glatiramer acetate, ARR by predicted responder status; assay type: in vivo, human
# Procedure: As used herein, “GALA” is a phase 3 clinical trial entitled “A Study in Subjects With Relapsing-Remitting Multiple Sclerosis (RRMS) to Assess the Efficacy, Safety and Tolerability of Glatiramer Acetate (GA) Injection 40 mg Administered Three Times a Week Compared to Placebo (GALA).” The GALA trial has the ClinicalTrials.gov Identifier NCT01067521, and additional information about the trial can be found at clinicaltrials.gov/ct2/show/NCT01067521.
# (§1) Response definitions were received from patients from two large glatiramer acetate clinical trial cohorts (GALA, FORTE) and patients were categorized as responder, non-responder, extreme-responder, or extreme non-responder according to the criteria set forth in Table 1.
# (§2) When analysis was conducted for all genotyped patients of the Gala and FORTE cohorts, based on the predictive model (11 SNPs and 2 clinical variables), 34% of GALA, and 42% of FORTE-patients were classified as “predicted responders”.
# (§3) Analysis was conducted for all genotyped patients of the Gala and FORTE cohorts, based on the 11 SNPs in the predictive model, but without including the clinical variables, and using a threshold at ˜30% of the population classified as “predicted responders” (FIG. 9).
# (§4) When analysis was conducted for all genotyped patients of the Gala and FORTE cohorts, based on the […] and 2 clinical variables, 34% of GALA, and 42% of FORTE-patients were classified as “predicted responders”.
# RRMS patients [4] = experiment: FORTE phase 3 trial cohort: response to glatiramer acetate, ARR by predicted responder status; assay type: in vivo, human; details: for ARR reduced (improved) by: predicted responders vs predicted non-responders
# Text: As used herein, “FORTE” is a phase 3 clinical trial entitled “Clinical Trial Comparing Treatment of Relapsing-Remitting Multiple Sclerosis (RR-MS) With Two Doses of Glatiramer Acetate (GA).” The FORTE trial has the ClinicalTrials.gov Identifier NCT00337779 and additional information, including study results can be found at clinicaltrials.gov/ct2/show/NCT00337779.
# as §1, §2, §3, §4
# [5] = predicted responders compared to predicted non-responders
# [6] = predicted responders compared to the overall cohort
# [7] = predicted responders compared to the overall patient cohort
# [8] = predicted responders, ± standard error of the mean
# [9] = change in ARR <-1 and new T2 lesions = 0 and relapse free
# [10] = change in ARR from previous 2 years <-1
# [11] = change in ARR from previous 2 years ≧0
# [12] = change in ARR ≧0 and new T2 lesions ≧1
# [13] = predicted non-responders, 10 SNPs and 2 clinical variables
# [14] = predicted non-responders, 11 SNPs without clinical variables
# [15] = predicted non-responders, model of 11 SNPs and 2 clinical variables
# [16] = predicted responders, 10 SNPs and 2 clinical variables, ± SEM
# [17] = predicted responders, 11 SNPs without clinical variables, threshold ~30% of population, ± SEM
# [18] = predicted responders, model of 11 SNPs and 2 clinical variables, ± SEM
substance,measurement,setting,value
glatiramer acetate,response rate,RRMS patients [1]; DRB1*1501 carriers,81.8%
same,response rate,RRMS patients [1]; non-carriers of DRB1*1501,39.4%
same,response rate,RRMS patients [1]; whole study population (N=83 RRMS),50%
same,EDSS progression,RRMS patients [2]; overall cohort,0.057
same,response rate,RRMS patients [2]; overall cohort,68%
same,annualized relapse rate (ARR),RRMS patients [2]; overall patient cohort,0.53±0.04
same,number of confirmed relapses (nrelapse),RRMS patients [2]; overall patient cohort,0.46±0.03
same,EDSS progression,RRMS patients [2]; predicted non-responders,0.10±0.02
same,annualized relapse rate (ARR),RRMS patients [2]; predicted non-responders,1.04±0.08
same,number of T1 enhancing lesions at month 12,RRMS patients [2]; predicted non-responders,1.70±0.38
same,number of confirmed relapses (nrelapse),RRMS patients [2]; predicted non-responders,0.88±0.06
same,response rate,"RRMS patients [2]; predicted non-responders, Gala and Forte cohorts",34%
same,EDSS progression,RRMS patients [2]; predicted responders,0.03±0.01
same,number of T1 enhancing lesions at month 12,RRMS patients [2]; predicted responders,0.91±0.18
same,ARR reduced (improved) by,RRMS patients [2]; [5],80%
same,improved response rate,RRMS patients [2]; [5],2.7 fold
same,number of T1 enhancing lesions at month 12 reduced (improved) by,RRMS patients [2]; [5],47%
same,number of confirmed relapses reduced (improved) by,RRMS patients [2]; [5],78%
same,improvement in response rate,RRMS patients [2]; [6],34%
same,reduced EDSS progression,RRMS patients [2]; [6],49%
same,ARR reduced (improved) by,RRMS patients [2]; [7],60%
same,number of confirmed relapses reduced (improved) by,RRMS patients [2]; [7],58%
same,EDSS progression delayed (improved) by,RRMS patients [2]; predicted responders versus predicted non-responders,72%
same,response rate,"RRMS patients [2]; predicted responders, Gala and Forte cohorts",91.1% and 91%
same,annualized relapse rate (ARR),RRMS patients [2]; [8],0.21±0.03
same,number of confirmed relapses (nrelapse),RRMS patients [2]; [8],0.19±0.03
same,relapse rate reduced by,"RRMS subjects; GA 20 mg vs placebo, largest controlled study",32%
same,tolerability,RRMS subjects; daily standard dose of 20 mg,generally well tolerated
same,median cumulative number of Gd-enhancing lesions,"RRMS subjects; over 9 months of treatment, 20 mg group",11 lesions
same,relapse rate,"RRMS subjects; under GA 20 mg, largest controlled study",1.34
same,"Extreme Responders, % of cohort",RRMS patients [3]; [9],(8.5%)
same,"Extreme Responders, number of samples",RRMS patients [3]; [9],66
same,"Responders, % of cohort",RRMS patients [3]; [10],(26%)
same,"Responders, number of samples",RRMS patients [3]; [10],200
same,"Non-Responders, % of cohort",RRMS patients [3]; [11],(16%)
same,"Non-Responders, number of samples",RRMS patients [3]; [11],123
same,"Extreme Non-Responders, % of cohort",RRMS patients [3]; [12],(10%)
same,"Extreme Non-Responders, number of samples",RRMS patients [3]; [12],79
same,annualized relapse rate (ARR),RRMS patients [3]; [13],0.374±0.038
same,annualized relapse rate (ARR),RRMS patients [3]; [14],0.382±0.037
same,annualized relapse rate (ARR),RRMS patients [3]; [15],0.374±0.038
same,ARR reduced (improved) by,"RRMS patients [3]; predicted responders vs placebo, 10 SNPs and 2 clinical variables",64%
same,ARR reduced (improved) by,"RRMS patients [3]; predicted responders vs placebo, 11 SNPs and 2 clinical variables",64%
same,ARR reduced (improved) by,"RRMS patients [3]; predicted responders vs placebo, 11 SNPs without clinical variables",71%
same,ARR reduced (improved) by,"RRMS patients [3]; predicted responders vs predicted non-responders, 10 SNPs and 2 clinical variables",51%
same,ARR reduced (improved) by,"RRMS patients [3]; predicted responders vs predicted non-responders, 11 SNPs and 2 clinical variables",51%
same,ARR reduced (improved) by,"RRMS patients [3]; predicted responders vs predicted non-responders, 11 SNPs without clinical variables",62%
same,annualized relapse rate (ARR),RRMS patients [3]; [16],0.185±0.032
same,annualized relapse rate (ARR),RRMS patients [3]; [17],0.131±0.026
same,annualized relapse rate (ARR),RRMS patients [3]; [18],0.185±0.032
same,"Extreme Responders, % of cohort",RRMS patients [4]; [9],(16%)
same,"Extreme Responders, number of samples",RRMS patients [4]; [9],95
same,"Responders, % of cohort",RRMS patients [4]; [10],(36%)
same,"Responders, number of samples",RRMS patients [4]; [10],221
same,"Non-Responders, % of cohort",RRMS patients [4]; [11],(11%)
same,"Non-Responders, number of samples",RRMS patients [4]; [11],68
same,"Extreme Non-Responders, % of cohort",RRMS patients [4]; [12],(6%)
same,"Extreme Non-Responders, number of samples",RRMS patients [4]; [12],38
same,annualized relapse rate (ARR),RRMS patients [4]; [13],0.368±0.039
same,annualized relapse rate (ARR),RRMS patients [4]; [14],0.290±0.03
same,annualized relapse rate (ARR),RRMS patients [4]; [15],0.368±0.039
same,ARR reduced (improved) by,RRMS patients [4]; 10 SNPs and 2 clinical variables,72%
same,ARR reduced (improved) by,RRMS patients [4]; 11 SNPs and 2 clinical variables,72%
same,ARR reduced (improved) by,RRMS patients [4]; 11 SNPs without clinical variables,50%
same,annualized relapse rate (ARR),RRMS patients [4]; [16],0.102±0.020
same,annualized relapse rate (ARR),RRMS patients [4]; [17],0.145±0.029
same,annualized relapse rate (ARR),RRMS patients [4]; [18],0.102±0.020
